Reference: paper PMC8429728, “TNK1 is a ubiquitin-binding and 14-3-3-regulated kinase that can be targeted to block tumor growth” (Nature Communications, 2021)
Read-outs that look alike come from different tables or passages of the source.

Legend:
Test in all cases: biochemical
Parameters in all cases: Reaction Biology 371-kinase panel at Km ATP, per cent enzyme activity relative to DMSO, single dose in duplicate
[1] = target: COT1/MAP3K8 (Homo sapiens, UniProt P41279); settings: duplicate measurements, Km ATP
How it was run: (§1)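 Compound screened at 300 nM in vitro across a 371-kinase panel. Enzyme activity expressed as % of DMSO controls. IC50 values came from sigmoidal variable-slope dose-response fits with the bottom fixed at 0.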

[2] = target: PLK1 (Homo sapiens, UniProt P53350); settings: duplicate measurements, Km ATP
How it was run: as §1

[3] = target: SGK3/SGKL (Homo sapiens, UniProt Q96BR1); settings: duplicate measurements, Km ATP
How it was run: as §1

[4] = target: CAMK4 (Homo sapiens, UniProt Q16566); settings: duplicate measurements, Km ATP
How it was run: as §1

[5] = target: PHKg2 (Homo sapiens, UniProt P15735); settings: duplicate measurements, Km ATP
How it was run: as §1

[6] = target: T1, JNK1 (Homo sapiens, UniProt P45983); settings: duplicate measurements, Km ATP; read-out: % Enzyme Activity (relative to DMSO controls) / TP-0005801 (0.3µM) / Data 1
T1 construct: gene MAPK8
How it was run: as §1

[7] = target: ERK5/MAPK7 (Homo sapiens, UniProt Q13164); settings: duplicate measurements, Km ATP
How it was run: as §1

[8] = target: DYRK2 (Homo sapiens, UniProt Q92630); settings: duplicate measurements, Km ATP
How it was run: as §1

[9] = target: T2, TRKC (Homo sapiens, UniProt Q16288); settings: duplicate measurements, Km ATP
T2 construct: gene NTRK3
How it was run: as §1

[10] = target: LIMK2 (Homo sapiens, UniProt P53671); settings: duplicate measurements, Km ATP
How it was run: as §1

[11] = target: CAMK2d (Homo sapiens, UniProt Q13557); settings: duplicate measurements, Km ATP
How it was run: as §1

[12] = target: MELK (Homo sapiens, UniProt Q14680); settings: duplicate measurements, Km ATP
How it was run: as §1

[13] = target: PAK6 (Homo sapiens, UniProt Q9NQU5); settings: duplicate measurements, Km ATP
How it was run: as §1

[14] = target: JAK2 (Homo sapiens, UniProt O60674); settings: duplicate measurements, Km ATP
How it was run: as §1

[15] = target: EPHA4 (Homo sapiens, UniProt P54764); settings: duplicate measurements, Km ATP
How it was run: as §1

[16] = target: YSK4/MAP3K19 (Homo sapiens, UniProt Q56UN5); settings: duplicate measurements, Km ATP
How it was run: as §1

[17] = target: STK38L/NDR2 (Homo sapiens, UniProt Q9Y2H1); settings: duplicate measurements, Km ATP
How it was run: as §1

[18] = target: KHS/MAP4K5 (Homo sapiens, UniProt Q9Y4K4); settings: duplicate measurements, Km ATP
How it was run: as §1

[19] = target: GCK/MAP4K2 (Homo sapiens, UniProt Q12851); settings: duplicate measurements, Km ATP
How it was run: as §1

[20] = target: GLK/MAP4K3 (Homo sapiens, UniProt Q8IVH8); settings: duplicate measurements, Km ATP
How it was run: as §1

[21] = read-out: % Enzyme Activity (relative to DMSO controls) / TP-0005801 (0.3µM) / Data 1
[22] = read-out: % Enzyme Activity (relative to DMSO controls) / TP-0005801 (0.3µM) / Data 2

Chain of GCK/MAP4K2 (Q12851 whole entry): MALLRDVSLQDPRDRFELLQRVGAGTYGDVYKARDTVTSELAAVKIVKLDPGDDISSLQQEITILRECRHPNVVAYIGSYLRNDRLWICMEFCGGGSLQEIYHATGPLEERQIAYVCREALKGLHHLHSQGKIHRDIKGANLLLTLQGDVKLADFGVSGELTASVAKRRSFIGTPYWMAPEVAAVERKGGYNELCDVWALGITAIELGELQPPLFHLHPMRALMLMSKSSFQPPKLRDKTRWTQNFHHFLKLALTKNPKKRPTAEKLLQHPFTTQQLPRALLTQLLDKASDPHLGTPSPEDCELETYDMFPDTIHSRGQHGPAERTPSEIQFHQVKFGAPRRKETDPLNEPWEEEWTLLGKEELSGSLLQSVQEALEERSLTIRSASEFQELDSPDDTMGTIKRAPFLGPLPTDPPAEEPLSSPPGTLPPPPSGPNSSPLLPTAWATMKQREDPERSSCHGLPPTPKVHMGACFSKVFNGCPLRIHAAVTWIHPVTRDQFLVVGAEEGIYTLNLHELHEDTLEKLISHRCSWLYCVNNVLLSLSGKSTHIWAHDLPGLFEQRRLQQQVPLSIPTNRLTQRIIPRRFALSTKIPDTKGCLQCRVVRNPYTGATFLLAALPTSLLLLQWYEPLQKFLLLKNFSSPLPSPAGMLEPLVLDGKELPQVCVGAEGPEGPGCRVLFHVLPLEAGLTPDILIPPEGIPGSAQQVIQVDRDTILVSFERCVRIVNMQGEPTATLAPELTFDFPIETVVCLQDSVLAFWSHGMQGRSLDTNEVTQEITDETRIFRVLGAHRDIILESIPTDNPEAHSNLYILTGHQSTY
Chain of KHS/MAP4K5 (Q9Y4K4 whole entry): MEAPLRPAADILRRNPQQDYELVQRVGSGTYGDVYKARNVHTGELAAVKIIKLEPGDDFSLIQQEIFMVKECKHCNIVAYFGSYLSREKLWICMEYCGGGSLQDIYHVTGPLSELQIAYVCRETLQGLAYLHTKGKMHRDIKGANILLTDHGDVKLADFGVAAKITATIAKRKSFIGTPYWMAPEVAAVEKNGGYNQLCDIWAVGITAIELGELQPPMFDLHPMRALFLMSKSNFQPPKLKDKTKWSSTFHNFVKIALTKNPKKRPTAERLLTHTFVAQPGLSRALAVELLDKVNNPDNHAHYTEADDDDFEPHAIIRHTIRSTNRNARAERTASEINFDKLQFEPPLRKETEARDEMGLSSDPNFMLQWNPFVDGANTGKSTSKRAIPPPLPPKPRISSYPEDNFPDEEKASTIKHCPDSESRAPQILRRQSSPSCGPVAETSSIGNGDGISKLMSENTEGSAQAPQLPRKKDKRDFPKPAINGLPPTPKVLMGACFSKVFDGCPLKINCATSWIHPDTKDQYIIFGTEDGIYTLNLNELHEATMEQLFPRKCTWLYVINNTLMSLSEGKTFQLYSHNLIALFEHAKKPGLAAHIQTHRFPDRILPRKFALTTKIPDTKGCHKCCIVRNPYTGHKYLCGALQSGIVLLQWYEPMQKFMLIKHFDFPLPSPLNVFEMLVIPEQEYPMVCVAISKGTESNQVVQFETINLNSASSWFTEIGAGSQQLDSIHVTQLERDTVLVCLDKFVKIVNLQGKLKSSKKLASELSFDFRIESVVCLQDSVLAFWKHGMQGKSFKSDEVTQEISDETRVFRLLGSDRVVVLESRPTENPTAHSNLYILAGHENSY
Chain of GLK/MAP4K3 (Q8IVH8 whole entry): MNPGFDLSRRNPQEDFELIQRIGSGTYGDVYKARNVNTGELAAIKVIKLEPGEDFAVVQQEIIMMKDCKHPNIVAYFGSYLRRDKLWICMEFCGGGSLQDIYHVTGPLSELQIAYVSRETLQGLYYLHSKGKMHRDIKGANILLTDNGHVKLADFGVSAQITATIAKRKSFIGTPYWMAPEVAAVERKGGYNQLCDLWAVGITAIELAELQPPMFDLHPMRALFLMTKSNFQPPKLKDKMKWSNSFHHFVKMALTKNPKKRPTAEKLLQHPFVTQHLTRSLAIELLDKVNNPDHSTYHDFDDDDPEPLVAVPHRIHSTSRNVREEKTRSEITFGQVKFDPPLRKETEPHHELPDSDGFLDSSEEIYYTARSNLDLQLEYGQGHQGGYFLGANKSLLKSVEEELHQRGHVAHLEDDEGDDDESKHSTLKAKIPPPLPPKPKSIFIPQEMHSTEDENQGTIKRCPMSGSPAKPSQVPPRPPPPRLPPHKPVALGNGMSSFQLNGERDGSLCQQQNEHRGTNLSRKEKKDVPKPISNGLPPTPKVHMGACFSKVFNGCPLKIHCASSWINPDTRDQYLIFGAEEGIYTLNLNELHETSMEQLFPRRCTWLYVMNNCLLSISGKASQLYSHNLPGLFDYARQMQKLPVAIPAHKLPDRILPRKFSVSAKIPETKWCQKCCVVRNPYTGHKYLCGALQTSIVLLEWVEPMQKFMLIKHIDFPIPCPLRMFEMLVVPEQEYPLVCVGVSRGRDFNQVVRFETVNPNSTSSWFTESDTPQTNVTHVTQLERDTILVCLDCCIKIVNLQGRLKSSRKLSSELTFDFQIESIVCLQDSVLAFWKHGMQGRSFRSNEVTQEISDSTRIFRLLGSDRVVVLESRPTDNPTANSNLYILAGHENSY
Chain of LIMK2 (P53671 whole entry): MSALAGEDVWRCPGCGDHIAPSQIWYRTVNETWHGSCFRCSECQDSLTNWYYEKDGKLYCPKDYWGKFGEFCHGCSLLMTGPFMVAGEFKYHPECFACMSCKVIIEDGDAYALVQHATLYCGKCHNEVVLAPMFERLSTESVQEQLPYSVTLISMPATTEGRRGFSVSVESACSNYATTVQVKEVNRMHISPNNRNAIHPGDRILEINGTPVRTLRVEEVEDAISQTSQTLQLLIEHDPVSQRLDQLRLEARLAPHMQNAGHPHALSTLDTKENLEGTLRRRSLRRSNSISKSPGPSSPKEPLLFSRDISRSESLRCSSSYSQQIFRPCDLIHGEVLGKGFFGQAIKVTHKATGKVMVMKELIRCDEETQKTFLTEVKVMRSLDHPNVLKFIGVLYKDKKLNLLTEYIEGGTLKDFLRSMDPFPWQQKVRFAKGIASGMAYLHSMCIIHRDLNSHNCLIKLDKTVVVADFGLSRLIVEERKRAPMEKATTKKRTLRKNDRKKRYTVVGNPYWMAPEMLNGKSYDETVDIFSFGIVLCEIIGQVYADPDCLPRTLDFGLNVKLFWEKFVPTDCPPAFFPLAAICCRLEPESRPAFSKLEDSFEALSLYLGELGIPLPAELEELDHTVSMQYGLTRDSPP
Chain of EPHA4 (P54764 whole entry): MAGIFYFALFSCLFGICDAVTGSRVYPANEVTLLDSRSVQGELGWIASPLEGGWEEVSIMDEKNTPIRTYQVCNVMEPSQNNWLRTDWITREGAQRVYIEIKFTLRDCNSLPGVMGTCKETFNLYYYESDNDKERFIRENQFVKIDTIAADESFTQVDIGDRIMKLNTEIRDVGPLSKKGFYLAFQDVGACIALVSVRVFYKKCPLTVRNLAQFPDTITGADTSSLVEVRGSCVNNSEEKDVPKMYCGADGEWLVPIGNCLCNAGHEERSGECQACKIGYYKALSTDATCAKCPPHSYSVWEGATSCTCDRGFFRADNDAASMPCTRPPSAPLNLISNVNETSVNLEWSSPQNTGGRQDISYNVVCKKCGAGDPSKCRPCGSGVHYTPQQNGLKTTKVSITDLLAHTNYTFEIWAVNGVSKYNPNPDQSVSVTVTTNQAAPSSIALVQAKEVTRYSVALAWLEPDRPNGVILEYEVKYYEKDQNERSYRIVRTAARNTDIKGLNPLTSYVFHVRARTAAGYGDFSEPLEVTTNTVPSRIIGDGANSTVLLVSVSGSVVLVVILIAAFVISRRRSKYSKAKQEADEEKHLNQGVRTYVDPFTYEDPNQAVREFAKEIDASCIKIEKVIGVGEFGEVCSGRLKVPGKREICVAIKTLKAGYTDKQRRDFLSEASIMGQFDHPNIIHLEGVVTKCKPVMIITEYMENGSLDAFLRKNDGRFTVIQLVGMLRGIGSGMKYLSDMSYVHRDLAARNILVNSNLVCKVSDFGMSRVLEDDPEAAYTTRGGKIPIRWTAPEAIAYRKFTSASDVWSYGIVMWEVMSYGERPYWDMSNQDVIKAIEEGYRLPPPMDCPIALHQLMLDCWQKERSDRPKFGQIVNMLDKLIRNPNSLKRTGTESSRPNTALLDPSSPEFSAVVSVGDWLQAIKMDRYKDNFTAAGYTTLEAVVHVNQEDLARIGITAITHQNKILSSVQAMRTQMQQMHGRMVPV
Chain of CAMK4 (Q16566 whole entry): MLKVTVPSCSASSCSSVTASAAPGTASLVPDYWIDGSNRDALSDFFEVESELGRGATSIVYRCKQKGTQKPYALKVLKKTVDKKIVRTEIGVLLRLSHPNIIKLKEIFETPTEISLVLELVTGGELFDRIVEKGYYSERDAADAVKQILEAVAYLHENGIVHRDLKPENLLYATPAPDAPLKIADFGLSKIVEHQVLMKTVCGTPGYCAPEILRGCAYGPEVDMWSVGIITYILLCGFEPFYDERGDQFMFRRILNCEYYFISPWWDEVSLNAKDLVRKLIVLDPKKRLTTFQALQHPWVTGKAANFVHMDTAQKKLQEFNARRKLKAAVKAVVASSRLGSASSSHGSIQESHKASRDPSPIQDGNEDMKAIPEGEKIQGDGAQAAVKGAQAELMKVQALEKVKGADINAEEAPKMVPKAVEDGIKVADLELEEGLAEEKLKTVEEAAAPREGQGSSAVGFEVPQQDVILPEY
Chain of PHKg2 (P15735 whole entry): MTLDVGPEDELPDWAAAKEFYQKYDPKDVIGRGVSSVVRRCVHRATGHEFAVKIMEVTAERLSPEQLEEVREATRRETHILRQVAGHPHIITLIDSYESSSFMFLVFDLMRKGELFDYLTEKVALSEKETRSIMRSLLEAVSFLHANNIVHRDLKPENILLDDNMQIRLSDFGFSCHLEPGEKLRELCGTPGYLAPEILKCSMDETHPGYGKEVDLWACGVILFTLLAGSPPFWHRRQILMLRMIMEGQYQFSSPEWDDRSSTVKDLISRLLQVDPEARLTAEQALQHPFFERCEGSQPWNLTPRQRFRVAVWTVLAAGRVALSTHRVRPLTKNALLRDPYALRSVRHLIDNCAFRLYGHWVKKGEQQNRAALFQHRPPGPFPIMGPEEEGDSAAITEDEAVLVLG

SMILES: COc1cc(N2CCN(C)CC2)c(C)cc1Nc1ncc(Br)c(Nc2cccnc2N(C)C)n1 [TP-5801]
- remaining activity at 0.3 µM [1, 21]: 100%
- remaining activity at 0.3 µM [1, 22]: 97.5%
- remaining activity at 0.3 µM [2, 21]: 88.7%
- remaining activity at 0.3 µM [2, 22]: 87.8%
- remaining activity at 0.3 µM [3, 21]: 108%
- remaining activity at 0.3 µM [3, 22]: 105%
- remaining activity at 0.3 µM [4, 21]: 96.9%
- remaining activity at 0.3 µM [4, 22]: 94.7%
- remaining activity at 0.3 µM [5, 21]: 72.4%
- remaining activity at 0.3 µM [5, 22]: 71.3%
- remaining activity at 0.3 µM [6]: 74.7%
- remaining activity at 0.3 µM [7, 21]: 91.6%
- remaining activity at 0.3 µM [7, 22]: 90.9%
- remaining activity at 0.3 µM [8, 21]: 94.2%
- remaining activity at 0.3 µM [8, 22]: 90.5%
- remaining activity at 0.3 µM [9, 21]: 109%
- remaining activity at 0.3 µM [9, 22]: 104%
- remaining activity at 0.3 µM [10, 21]: 114%
- remaining activity at 0.3 µM [10, 22]: 108%
- remaining activity at 0.3 µM [11, 21]: 4.74%
- remaining activity at 0.3 µM [11, 22]: 4.45%
- remaining activity at 0.3 µM [12, 21]: 93.1%
- remaining activity at 0.3 µM [12, 22]: 90.3%
- remaining activity at 0.3 µM [13, 21]: 107%
- remaining activity at 0.3 µM [13, 22]: 105%
- remaining activity at 0.3 µM [14, 21]: 82.8%
- remaining activity at 0.3 µM [14, 22]: 77.7%
- remaining activity at 0.3 µM [15, 21]: 98.9%
- remaining activity at 0.3 µM [15, 22]: 98.5%
- remaining activity at 0.3 µM [16, 21]: 93.8%
- remaining activity at 0.3 µM [16, 22]: 92.8%
- remaining activity at 0.3 µM [17, 21]: 53.1%
- remaining activity at 0.3 µM [17, 22]: 52.8%
- remaining activity at 0.3 µM [18, 21]: 90%
- remaining activity at 0.3 µM [18, 22]: 87%
- remaining activity at 0.3 µM [19, 21]: 76.1%
- remaining activity at 0.3 µM [19, 22]: 73.9%
- remaining activity at 0.3 µM [20, 21]: 35%
- remaining activity at 0.3 µM [20, 22]: 34.3%
